From publication PMC5884652, “New antimicrobial peptide kills drug-resistant pathogens without detectable resistance” (Oncotarget, 2018)
Ends that are not written are not given here.

Key:
[1] = tested on: S. aureus ATCC 29213; assay: microbe, parasite or virus in culture
Description: To determine the MICs of CSP-4, a single colony of S. aureus ATCC 29213 was cultured at 37° C in tryptic soy broth, as well as daptomycin and linezolid, which served as commercial antibiotic positive controls. […] For each agent, the MIC was determined daily for 29 days at pH 5.5 and/or for 8 days at pH 7.4 using cells from wells containing half the MIC (1/2 MIC well). […] All MICs were determined in duplicate.

[2] = tested on: E. coli; assay: Membrane depolarization (DiSC3-5); format: cell-based; conditions: ex 622 nm, em 670 nm
Description: The membrane depolarizing activities of the peptides were evaluated in E. coli cells using the membrane potential-sensitive fluorescent dye DiSC3-5 (3,3′-dipropylthiadicarbocyanine iodide). Two batches of bacterial cells (experiment and control) were grown to mid-log phase at 37° C, harvested, and washed three times with buffer A (20 mM glucose, 5 mM HEPES [pH 7.2]). The cells were then resuspended to an A600 of 0.05 in buffer A containing 0.1 M KCl, after which DiSC3-5 was added to a final concentration of […] and the mixture was incubated for 60 min until the fluorescence level stabilized. The peptides were then added to bacterial suspensions, and the changes in fluorescence were continuously recorded (excitation at 622 nm and emission at 670 nm) for 30 min [36].

[3] = tested on: S. aureus CCARM 0027-infected hairless mice; assay: Dermal infection and inflammation model; format: in vivo, mouse
Description: Male hairless mouse (aged 6 weeks, 5 mouse/group, total 7 groups) were injected intraepidermal with S. aureus CCARM 0027 (1 × 10^8 cfu/ml). The CSP-4 peptide (200, 100, 50, 25 μg/ml) was injected intraeptidermal into mice at 1 h after the S. aureus CCARM 0027 injection, samples of inflamed skin was collected after 7 days and 4-μm-thick sections were prepared as described in the preceding section. Each sample was then incubated for 30 min at 24° C with 5% bovine serum albumin, mouse anti-Toll-like receptor-2 (TLR-2) (AbFrontier, AB24192), mouse monoclonal anti-TNF-α (AbFrontier, AB1793), and mouse polyclonal anti-IL-1β (AbFrontier, AB1413). The samples were then washed with Tris-buffered saline containing Tween 20 buffer and incubated with HRP LF-SA5001-conjugated goat anti-mouse IgG, and stained with hematoxylin and eosin. The stained sections were examined under a fluorescence microscope.
Western blot analysis was performed as using changes in protein expression. Briefly, proteins extracted from the hairless mouse skin were separated for 3 h using 15% SDS-polyacrylamide gel electrophoresis and transferred to polyvinylidene fluoride membranes (Bio-Rad, Hercules, CA, USA) for 1 h at 90 V. The membranes were then incubated overnight at 4° C in 5% skim milk containing anti-GAPDH (LF-PA0018; Santa Cruz Biotechnology, Santa Cruz, CA, USA), mouse anti-TLR2 (AbFrontier, AB24192), mouse anti-NF-κB, (Santa Cruz Biotechnology, SC-71675), mouse anti-TNF-α (AbFrontier, AB1793), mouse anti-IL-1β (AbFrontier, AB1413), and mouse anti-cathelicidin (AbFrontier, AB93357). The membranes were then washed in Tris-buffered saline containing Tween 20 and incubated with the horseradish peroxidase (HRP)-conjugated secondary antibodies LF-SA5002 goat anti-rabbit IgG and LF-SA5001 goat anti-mouse IgG. The blots were developed using a Western Blot Detection kit (AbFrontier, LF-QC0103).
For scanning electron microscopy (SEM), S. aureus cells were cultured in LB medium (pH 5.5 or pH 7.4), washed 3 times with 10 mM sodium phosphate buffer, and stirred at 4000 rpm. CSP-4 was added to the cells and incubated at 25° C. After incubation, the cells were fixed in 4% glutaraldehyde for 20 min and dehydrated in 50% and then 100% ethanol (10 min each step) at 37° C. In addition, 7 days after inducing inflammation in hairless mouse skin tissue by infection with drug-resistant S. aureus CCARM 0027 strain or E. coli bacteria, samples of skin tissue were isolated, washed in PBS, fixed in 4% paraformaldehyde overnight at 4° C, and dehydrated in 50% and then 100% ethanol (2 h each step) at 37° C. Samples were then gold-coated and visualized by SEM (JSM-7100F; JEOL, Tokyo, Japan).

[4] = tested on: S. aureus 3126; assay: microbe, parasite or virus in culture; format: cell-based, Staphylococcus aureus; conditions: pH 7.4 (II); 10 mM sodium phosphate buffer, 10% LB; 37° C, 24 h; mean of 3 experiments
Source text: (§1) The method for peptide synthesis has been described in detail previously. E. coli ATCC 25922 (LB media), P. aeruginosa ATCC 15692 (NB+0.5% NaCl media), Listeria monocytogenes ATCC 3710 (LB media), Staphylococcus epidermidis ATCC 12228 (LB media), and S. aureus ATCC 29213 (TSB media) were obtained from the American Type Culture Collection (Manassas, VA, USA). Bacillus subtilis KCTC 1998 (LB media), Salmonella typhimurium KCTC 1926 (NB media), and Proteus vulgaris KCTC 2433 (NB media) were obtained from the Korean Collection for Type Cultures (Jeollabuk-do, Korea). E. coli CCARM 1238 was received from the Culture Collection of Antibiotic Resistant Microbes at Seoul Women’s University, Korea. Drug-resistant P. aeruginosa 3543, 3904, 3547, and 4007 and S. aureus 3126, 0027, 5157, 1635, 4761, 5159, 3359, 2122, 1630, 1870, 3511, 5156, and 3518 were resistant strains isolated from patients with otitis media in a Chonnam National University’s hospital.
(§2) The antibacterial activities of AMPs (melittin, clavaspirin, and its analogs) and conventional antibiotic drugs (erythromycin, gentamicin, ampicillin, and piperacidin) were determined using microdilution assays. Bacterial cells were cultured at 37° C in appropriate culture media at pH 5.5 or pH 7.4 until collection during the mid-log phase and suspended in 10 mM sodium phosphate buffer (pH 5.5 or pH 7.4) supplemented with 10% culture medium. Thereafter, 2× serial dilutions of each peptide (0.25–128 μM) or antibiotic (0.25–256 μM) were added to sterile 96-well plates, and aliquots of cell suspension (5 × 10^5 colony forming units (cfu)/mL) were seeded into each well. The samples were then incubated at 37° C for 24 h. At the end of the incubation, the minimum inhibitory concentrations (MICs) of the peptides were determined using a VERSA Max microplate reader (Molecular Devices Co., Sunnyvale, CA, USA) at a wavelength of 600 nm. […] MIC values were calculated as the mean of 3 independent experiments conducted in triplicate.

[5] = tested on: S. aureus 3511; assay: microbe, parasite or virus in culture; format: cell-based, Staphylococcus aureus; conditions: pH 7.4 (II); 10 mM sodium phosphate buffer, 10% LB; 37° C, 24 h; mean of 3 experiments
Source text: as §1, §2

[6] = tested on: S. aureus 5157; assay: microbe, parasite or virus in culture; format: cell-based, Staphylococcus aureus; conditions: pH 7.4 (II); 10 mM sodium phosphate buffer, 10% LB; 37° C, 24 h; mean of 3 experiments
Source text: as §1, §2

Substance: FLRFIGSVKHGKGHLVHHIGVAL-NH2 [CSP-4]
- MIC after 29 passages ([1]; after exposure for 29 passages): 16 µM
- Increase of MIC ([1]; after exposure for 29 passages, pH not given): approximately 2 ×
- Induction of drug resistance ([1]; exposure for up to 29 passages): did not induce drug resistance
- Membrane depolarization (DisC3–5 fluorescence) [2]: dose-dependent disruption and resultant depolarization
- Epidermal thickness and immune cell infiltration ([3]; 200 µg/mL and 100 µg/mL, skin collected after 7 days, hematoxylin and eosin): dose-dependent decrease
- TLR-2, NF-κB, TNF-α, IL-1β, and cathelicidin levels in skin ([3]; 200 μg/mL or 100 μg/mL, Western blot): concentration-dependent decreases
- Dermal collagen and elastin, uninfected mice treated with peptide alone ([3]; CSP-4 alone (200 µg/mL), SEM): not damaged
- Collagen and elastin damage in infected skin ([3]; SEM, 7 days after infection): dose-dependently reduced
- MIC [4]: 8 µM
- MIC [5]: 8 µM
- MIC [6]: 8 µM
